Tested on: Echinochloa crus-galli
Assay: Paddy herbicidal activity test
Type: in vivo
Conditions: 1 g a.i./10 a; irrigated pot, treated at 3.5 leaf stage of Echinochloa crus-galli; 30 days at 30° C.
Method: (§1) Rice paddy soil was filled into a 1/10000 are pot followed by the addition of suitable amounts of water and chemical fertilizer, kneading, seeding with Echinochloa crus-galli, Monochoria vaginalis and Scirpus juncoides and maintaining in an irrigated state at a water depth of 3 cm. Wettable powders of Target Compound (I) shown in Table 1 prepared in compliance with the preparation examples were diluted with a suitable amount of water, rice plants in the 2.0 leaf stage were transplanted during 3.5 leaf stage of Echinochloa crus-galli, and treated by dropping in chemical in the prescribed amount per 10 are using a pipette. After treating for 30 days in a glass greenhouse at an average atmospheric temperature of 30° C., the herbicidal efficacy thereof was investigated. Evaluation of herbicidal efficacy was carried out by comparing growth inhibition rate (%) with an untreated group, while evaluation of phytotoxicity was carried out by comparing growth inhibition rate (%) with the state of a complete eradication group, and were evaluated at 11 levels indicated below.

Question: Which “herbicidal efficacy, Echinochloa crus-galli” value does the source give for N#Cc1cnn(-c2nn3c(c2Cl)CCCC3)c1NC(=O)Cc1cccc(F)c1 [Compound 11] here?
Answer: 9 (9: 90% to less than 100%)

Same assay, conditions: 5 g a.i./10 a; irrigated pot, treated at 3.5 leaf stage of Echinochloa crus-galli; 30 days at 30° C.

Question: N#Cc1cnn(-c2nn3c(c2Cl)CCCC3)c1NC(=O)Cc1cccc(F)c1 [Compound 11] was tested. Which “herbicidal efficacy, Echinochloa crus-galli” value did it give?
Answer: 10 (10: 100%)

Tested on: Monochoria vaginalis
Assay: Paddy herbicidal activity test
Type: in vivo
Conditions: 1 g a.i./10 a; irrigated pot, treated at 3.5 leaf stage of Echinochloa crus-galli; 30 days at 30° C.
Method: as §1

Question: Which “herbicidal efficacy, Monochoria vaginalis” value does the source give for N#Cc1cnn(-c2nn3c(c2Cl)CCCC3)c1NC(=O)Cc1cccc(F)c1 [Compound 11] here?
Answer: 9 (9: 90% to less than 100%)

Same assay, conditions: 5 g a.i./10 a; irrigated pot, treated at 3.5 leaf stage of Echinochloa crus-galli; 30 days at 30° C.

Question: Which “herbicidal efficacy, Monochoria vaginalis” value does the source give for N#Cc1cnn(-c2nn3c(c2Cl)CCCC3)c1NC(=O)Cc1cccc(F)c1 [Compound 11] here?
Answer: 9 (9: 90% to less than 100%)

Tested on: Scirpus juncoides
Assay: Paddy herbicidal activity test
Type: in vivo
Conditions: 1 g a.i./10 a; irrigated pot, treated at 3.5 leaf stage of Echinochloa crus-galli; 30 days at 30° C.
Method: as §1

Question: With N#Cc1cnn(-c2nn3c(c2Cl)CCCC3)c1NC(=O)Cc1cccc(F)c1 [Compound 11] as the molecule, how does the “herbicidal efficacy, Scirpus juncoides” value read?
Answer: 9 (9: 90% to less than 100%)

Same assay, conditions: 5 g a.i./10 a; irrigated pot, treated at 3.5 leaf stage of Echinochloa crus-galli; 30 days at 30° C.

Question: How did the “herbicidal efficacy, Scirpus juncoides” value turn out when N#Cc1cnn(-c2nn3c(c2Cl)CCCC3)c1NC(=O)Cc1cccc(F)c1 [Compound 11] was run?
Answer: 10 (10: 100%)

Tested on: Oryza sativa
Assay: Paddy herbicidal activity test, phytotoxicity to transplanted rice
Type: in vivo
Conditions: 1 g a.i./10 a; rice transplanted at 2.0 leaf stage; 30 days at 30° C.
Method: as §1

Question: Which “phytotoxicity, Oryza sativa” value does the source give for N#Cc1cnn(-c2nn3c(c2Cl)CCCC3)c1NC(=O)Cc1cccc(F)c1 [Compound 11] here?
Answer: 0 (0 (exponent): 0% to less than 10% (growth inhibition rate))

Same assay, conditions: 5 g a.i./10 a; rice transplanted at 2.0 leaf stage; 30 days at 30° C.

Question: With N#Cc1cnn(-c2nn3c(c2Cl)CCCC3)c1NC(=O)Cc1cccc(F)c1 [Compound 11] as the molecule, how does the “phytotoxicity, Oryza sativa” value read?
Answer: 1 (1: 10% to less than 20%)

Tested on: Amaranthus retroflexus
Assay: Farming soil treatment test
Type: in vivo
Conditions: 5 g a.i./10 a; soil surface spray prior to weed growth; 30 days at 30° C.
Method: (§2) Field soil was filled into a 1/6000 are pot followed by seeding with Digitaria ciliaris, Chenopodium album and Amaranthus retroflexus and covering with soil. Wettable powders of compounds of formula (I) shown in Table 1 prepared in compliance with the preparation examples were diluted with water to the prescribed amount of chemical and uniformly sprayed onto each soil surface layer using 100 liters of sprayed water per 10 are prior to weed growth following seeding. After treating for 30 days in a glass greenhouse at an average atmospheric temperature of 30° C., the herbicidal efficacy thereof was investigated. Evaluation of herbicidal efficacy was carried out in the same manner as the above-mentioned Test Example 1.

Question: Which “herbicidal efficacy, Amaranthus retroflexus” value does the source give for N#Cc1cnn(-c2nn3c(c2Cl)CCCC3)c1NC(=O)Cc1cccc(F)c1 [Compound 11] here?
Answer: 9 (9: 90% to less than 100%)

Same assay, conditions: 10 g a.i./10 a; soil surface spray prior to weed growth; 30 days at 30° C.

Question: Which “herbicidal efficacy, Amaranthus retroflexus” value does the source give for N#Cc1cnn(-c2nn3c(c2Cl)CCCC3)c1NC(=O)Cc1cccc(F)c1 [Compound 11] here?
Answer: 9 (9: 90% to less than 100%)

Tested on: Chenopodium album
Assay: Farming soil treatment test
Type: in vivo
Conditions: 5 g a.i./10 a; soil surface spray prior to weed growth; 30 days at 30° C.
Method: as §2

Question: Which “herbicidal efficacy, Chenopodium album” value does the source give for N#Cc1cnn(-c2nn3c(c2Cl)CCCC3)c1NC(=O)Cc1cccc(F)c1 [Compound 11] here?
Answer: 10 (10: 100%)

Same assay, conditions: 10 g a.i./10 a; soil surface spray prior to weed growth; 30 days at 30° C.

Question: For N#Cc1cnn(-c2nn3c(c2Cl)CCCC3)c1NC(=O)Cc1cccc(F)c1 [Compound 11], which “herbicidal efficacy, Chenopodium album” value is on record?
Answer: 10 (10: 100%)

Tested on: Digitaria ciliaris
Assay: Farming soil treatment test
Type: in vivo
Conditions: 5 g a.i./10 a; soil surface spray prior to weed growth; 30 days at 30° C.
Method: as §2

Question: Which “herbicidal efficacy, Digitaria ciliaris” value does the source give for N#Cc1cnn(-c2nn3c(c2Cl)CCCC3)c1NC(=O)Cc1cccc(F)c1 [Compound 11] here?
Answer: 9 (9: 90% to less than 100%)

Same assay, conditions: 10 g a.i./10 a; soil surface spray prior to weed growth; 30 days at 30° C.

Question: How did the “herbicidal efficacy, Digitaria ciliaris” value turn out when N#Cc1cnn(-c2nn3c(c2Cl)CCCC3)c1NC(=O)Cc1cccc(F)c1 [Compound 11] was run?
Answer: 10 (10: 100%)

Tested on: Amaranthus retroflexus
Assay: Weed foliar treatment test (Test 3, 1.0 to 2.0 leaf stage)
Type: in vivo
Conditions: 5 g a.i./10 a; foliar spray at 1.0 to 2.0 leaf stage of Digitaria ciliaris; 3 weeks at 25° C.
Method: (§3) Soil was filled into a 1/6000 are pot followed by seeding with Digitaria ciliaris, Chenopodium album and Amaranthus retroflexus, covering with soil, and cultivating in a glass greenhouse at an average atmospheric temperature of 25° C. Wettable powders of Target Compound (I) shown in Table 1 prepared in compliance with the preparation examples were diluted with water to the prescribed amount of chemical and uniformly sprayed onto the weeds using 150 liters of sprayed water per 10 are when Digitaria ciliaris had grown to the 1.0 to 2.0 leaf stage. After treating for 3 weeks in a glass greenhouse at an average atmospheric temperature of 25° C., the herbicidal efficacy thereof was investigated. Evaluation of herbicidal efficacy was carried out in the same manner as the above-mentioned Test Example 1.

Question: N#Cc1cnn(-c2nn3c(c2Cl)CCCC3)c1NC(=O)Cc1cccc(F)c1 [Compound 11] was tested. Which “herbicidal efficacy, Amaranthus retroflexus” value did it give?
Answer: 10 (10: 100%)

Same assay, conditions: 10 g a.i./10 a; foliar spray at 1.0 to 2.0 leaf stage of Digitaria ciliaris; 3 weeks at 25° C.

Question: How did the “herbicidal efficacy, Amaranthus retroflexus” value turn out when N#Cc1cnn(-c2nn3c(c2Cl)CCCC3)c1NC(=O)Cc1cccc(F)c1 [Compound 11] was run?
Answer: 10 (10: 100%)

Tested on: Chenopodium album
Assay: as above
Type: in vivo
Conditions: 5 g a.i./10 a; foliar spray at 1.0 to 2.0 leaf stage of Digitaria ciliaris; 3 weeks at 25° C.
Method: as §3

Question: How did the “herbicidal efficacy, Chenopodium album” value turn out when N#Cc1cnn(-c2nn3c(c2Cl)CCCC3)c1NC(=O)Cc1cccc(F)c1 [Compound 11] was run?
Answer: 10 (10: 100%)

Same assay, conditions: 10 g a.i./10 a; foliar spray at 1.0 to 2.0 leaf stage of Digitaria ciliaris; 3 weeks at 25° C.

Question: For N#Cc1cnn(-c2nn3c(c2Cl)CCCC3)c1NC(=O)Cc1cccc(F)c1 [Compound 11], which “herbicidal efficacy, Chenopodium album” value is on record?
Answer: 10 (10: 100%)

Tested on: Digitaria ciliaris
Assay: as above
Type: in vivo
Conditions: 5 g a.i./10 a; foliar spray at 1.0 to 2.0 leaf stage of Digitaria ciliaris; 3 weeks at 25° C.
Method: as §3

Question: Which “herbicidal efficacy, Digitaria ciliaris” value does the source give for N#Cc1cnn(-c2nn3c(c2Cl)CCCC3)c1NC(=O)Cc1cccc(F)c1 [Compound 11] here?
Answer: 10 (10: 100%)

Same assay, conditions: 10 g a.i./10 a; foliar spray at 1.0 to 2.0 leaf stage of Digitaria ciliaris; 3 weeks at 25° C.

Question: Which “herbicidal efficacy, Digitaria ciliaris” value does the source give for N#Cc1cnn(-c2nn3c(c2Cl)CCCC3)c1NC(=O)Cc1cccc(F)c1 [Compound 11] here?
Answer: 10 (10: 100%)

Tested on: Digitaria ciliaris
Assay: Weed foliar treatment test (Test 4, 4.0 to 5.0 leaf stage)
Type: in vivo
Conditions: 10 g a.i./10 a; foliar spray at 4.0 to 5.0 leaf stage of Digitaria ciliaris (plant height 10 cm to 15 cm); 20 days at 25° C.
Method: (§4) Field soil was filled into a 1/4500 are pot followed by seeding with Digitaria ciliaris and Galinsoga parviflora, covering with soil and cultivating in a glass greenhouse at an average atmospheric temperature of 25° C. Wettable powders of Target Compound (I) shown in Table 1 prepared in compliance with the preparation examples were diluted with water to the prescribed amount of chemical and uniformly sprayed onto the weeds using 100 liters of sprayed water per 10 are when Digitaria ciliaris had grown to the 4.0 to 5.0 leaf stage (plant height: 10 cm to 15 cm). After treating for 20 days in a glass greenhouse at an average atmospheric temperature of 25° C., the herbicidal efficacy thereof was investigated. Evaluation of herbicidal efficacy was carried out in the same manner as the above-mentioned Test Example 1.

Question: Which “herbicidal efficacy, Digitaria ciliaris” value does the source give for N#Cc1cnn(-c2nn3c(c2Cl)CCCC3)c1NC(=O)Cc1cccc(F)c1 [Compound 11] here?
Answer: 10 (10: 100%)

Tested on: Galinsoga parviflora
Assay: as above
Type: in vivo
Conditions: 10 g a.i./10 a; foliar spray at 4.0 to 5.0 leaf stage of Digitaria ciliaris (plant height 10 cm to 15 cm); 20 days at 25° C.
Method: as §4

Question: N#Cc1cnn(-c2nn3c(c2Cl)CCCC3)c1NC(=O)Cc1cccc(F)c1 [Compound 11] was tested. Which “herbicidal efficacy, Galinsoga parviflora” value did it give?
Answer: 10 (10: 100%)

From patent US10165776B2, “Substituted pyrazolylpyrazole derivative and use of same as herbicide” (KYOYU AGRI CO., LTD., priority 2015, dated 2019)
